Results as given in PMC12337661, “PIEZO1 mechanical insensitivity in generalized lymphatic dysplasia with the potential for pharmacological rescue” (iScience, 2025).

Legend:
Test in all cases: Intracellular Ca2+ measurement (fura-2), T-REx-293 cells stably transfected
Format in all cases: cell-based
E824V mPIEZO1 = molecular target: T1, E824V mPIEZO1 (Mus musculus, UniProt E2JF22, E824V); conditions: normalized to the WT Yoda1 maximum response
T1 construct: expressed in transfected cells
Experimental: (§1) T-REx-293 cell line was transfected with pcDNA4/TO-mPIEZO1 constructs using Lipofectamine 2000 (Invitrogen) as above and treated with 200 μg.mL^−1 zeocin (InvivoGen) to select for stably transfected cells. At least two strongly expressing clonal cell lines were established and tested for each variant. All cell lines were maintained in Dulbecco’s Modified Eagle’s medium (Invitrogen) supplemented with 10% heat-inactivated fetal calf serum (Sigma-Aldrich), penicillin (50 units.mL^−1) and streptomycin (0.5 mg.mL^−1) (Sigma-Aldrich) and grown at 37°C in a humidified 5% CO2 incubator.
(§2) For intracellular Ca^2+ assays, cells were plated at 80–90% confluence in 96-well plates 24 h prior to recordings (6–8 × 10^4 cells per well). […] Cells were washed with SBS and incubated at room temperature for 20 min prior to recordings. Equal volumes of 2x concentrated compounds were injected to test for acute channel activation. Pre-incubation with compounds occurred during the 20 min prior to recordings. To expose cell membranes to hypo-osmolality, an equal volume of hypotonic SBS (containing only 35 mM NaCl) was injected onto the cells. Measurements were made on a fluorescence plate reader (Flexstation III, Molecular Devices) at room temperature (21 ± 2°C). Fura-2 was excited at 340 nm and 380 nm and emitted light collected at 510 nm, with measurements shown as the change in fluorescence (F) ratio (ΔF340/380).
(§3) KC41 (Dooku1) was prepared as described.[28] All purchased chemicals and solvents were used without further purification unless otherwise stated. All compounds were at least 95% pure by 1H NMR. 1H Nuclear Magnetic Resonance spectra were recorded at 500 MHz using a Bruker DRX 500 instrument or at 400 MHz using a Bruker DPX 400. 1H spectra are referenced based on the residual proton in the solvent (e.g., the CHCl3, 0.01% in 99.99% CDCl3). Coupling constants (J) are reported to the nearest 0.1 Hz. 13C NMR spectra were recorded at 125 MHz on 500 MHz spectrometers or at 100 MHz on 400 MHz spectrometers. LC-MS was performed on a Bruker Daltronics running a gradient of increasing acetonitrile (5–95%) in H2O both containing 0.1% formic acid at 1 mL.min^−1, on a short path C18 reverse phase column, detecting compounds with both a diode array detector and a Bruker mass spectrum analyser. HRMS was performed on a Bruker Daltonics micrOTOF using positive electrospray ionisation (ES+). Automated column chromatograph was carried out using a Biotage Isolera Four, using either Sfär Silica D or KP-Silica cartridges. HPLC was performed on an Agilent 1290 Infinity Series equipped with a UV detector and Hyperprep C18 reverse phase column. Key to NMR abbreviations: s (singlet), br s (broad singlet) d (doublet), dd (doublet of doublets), ddd (doublet of doublets of doublets), t (triplet), dt (doublet of triples), q (quartet), m (multiplet), ap. t (apparent triplet). For experiments, Yoda1 and its analogues were prepared as 10 mM stock solutions in 100% dimethyl sulfoxide (DMSO) before serial dilution in DMSO and final dilution in aqueous solution. Cells were exposed to 0.1% DMSO for all concentrations of the compounds from 0 to 10 μM.

G1994D mPIEZO1 = molecular target: T2, G1994D mPIEZO1 (Mus musculus, UniProt E2JF22, G1994D); conditions: for Mean (concentration-response, Figure 5g): G1994D
T2 construct: expressed in transfected cells
T2 sequence (E2JF22 whole entry G1994D): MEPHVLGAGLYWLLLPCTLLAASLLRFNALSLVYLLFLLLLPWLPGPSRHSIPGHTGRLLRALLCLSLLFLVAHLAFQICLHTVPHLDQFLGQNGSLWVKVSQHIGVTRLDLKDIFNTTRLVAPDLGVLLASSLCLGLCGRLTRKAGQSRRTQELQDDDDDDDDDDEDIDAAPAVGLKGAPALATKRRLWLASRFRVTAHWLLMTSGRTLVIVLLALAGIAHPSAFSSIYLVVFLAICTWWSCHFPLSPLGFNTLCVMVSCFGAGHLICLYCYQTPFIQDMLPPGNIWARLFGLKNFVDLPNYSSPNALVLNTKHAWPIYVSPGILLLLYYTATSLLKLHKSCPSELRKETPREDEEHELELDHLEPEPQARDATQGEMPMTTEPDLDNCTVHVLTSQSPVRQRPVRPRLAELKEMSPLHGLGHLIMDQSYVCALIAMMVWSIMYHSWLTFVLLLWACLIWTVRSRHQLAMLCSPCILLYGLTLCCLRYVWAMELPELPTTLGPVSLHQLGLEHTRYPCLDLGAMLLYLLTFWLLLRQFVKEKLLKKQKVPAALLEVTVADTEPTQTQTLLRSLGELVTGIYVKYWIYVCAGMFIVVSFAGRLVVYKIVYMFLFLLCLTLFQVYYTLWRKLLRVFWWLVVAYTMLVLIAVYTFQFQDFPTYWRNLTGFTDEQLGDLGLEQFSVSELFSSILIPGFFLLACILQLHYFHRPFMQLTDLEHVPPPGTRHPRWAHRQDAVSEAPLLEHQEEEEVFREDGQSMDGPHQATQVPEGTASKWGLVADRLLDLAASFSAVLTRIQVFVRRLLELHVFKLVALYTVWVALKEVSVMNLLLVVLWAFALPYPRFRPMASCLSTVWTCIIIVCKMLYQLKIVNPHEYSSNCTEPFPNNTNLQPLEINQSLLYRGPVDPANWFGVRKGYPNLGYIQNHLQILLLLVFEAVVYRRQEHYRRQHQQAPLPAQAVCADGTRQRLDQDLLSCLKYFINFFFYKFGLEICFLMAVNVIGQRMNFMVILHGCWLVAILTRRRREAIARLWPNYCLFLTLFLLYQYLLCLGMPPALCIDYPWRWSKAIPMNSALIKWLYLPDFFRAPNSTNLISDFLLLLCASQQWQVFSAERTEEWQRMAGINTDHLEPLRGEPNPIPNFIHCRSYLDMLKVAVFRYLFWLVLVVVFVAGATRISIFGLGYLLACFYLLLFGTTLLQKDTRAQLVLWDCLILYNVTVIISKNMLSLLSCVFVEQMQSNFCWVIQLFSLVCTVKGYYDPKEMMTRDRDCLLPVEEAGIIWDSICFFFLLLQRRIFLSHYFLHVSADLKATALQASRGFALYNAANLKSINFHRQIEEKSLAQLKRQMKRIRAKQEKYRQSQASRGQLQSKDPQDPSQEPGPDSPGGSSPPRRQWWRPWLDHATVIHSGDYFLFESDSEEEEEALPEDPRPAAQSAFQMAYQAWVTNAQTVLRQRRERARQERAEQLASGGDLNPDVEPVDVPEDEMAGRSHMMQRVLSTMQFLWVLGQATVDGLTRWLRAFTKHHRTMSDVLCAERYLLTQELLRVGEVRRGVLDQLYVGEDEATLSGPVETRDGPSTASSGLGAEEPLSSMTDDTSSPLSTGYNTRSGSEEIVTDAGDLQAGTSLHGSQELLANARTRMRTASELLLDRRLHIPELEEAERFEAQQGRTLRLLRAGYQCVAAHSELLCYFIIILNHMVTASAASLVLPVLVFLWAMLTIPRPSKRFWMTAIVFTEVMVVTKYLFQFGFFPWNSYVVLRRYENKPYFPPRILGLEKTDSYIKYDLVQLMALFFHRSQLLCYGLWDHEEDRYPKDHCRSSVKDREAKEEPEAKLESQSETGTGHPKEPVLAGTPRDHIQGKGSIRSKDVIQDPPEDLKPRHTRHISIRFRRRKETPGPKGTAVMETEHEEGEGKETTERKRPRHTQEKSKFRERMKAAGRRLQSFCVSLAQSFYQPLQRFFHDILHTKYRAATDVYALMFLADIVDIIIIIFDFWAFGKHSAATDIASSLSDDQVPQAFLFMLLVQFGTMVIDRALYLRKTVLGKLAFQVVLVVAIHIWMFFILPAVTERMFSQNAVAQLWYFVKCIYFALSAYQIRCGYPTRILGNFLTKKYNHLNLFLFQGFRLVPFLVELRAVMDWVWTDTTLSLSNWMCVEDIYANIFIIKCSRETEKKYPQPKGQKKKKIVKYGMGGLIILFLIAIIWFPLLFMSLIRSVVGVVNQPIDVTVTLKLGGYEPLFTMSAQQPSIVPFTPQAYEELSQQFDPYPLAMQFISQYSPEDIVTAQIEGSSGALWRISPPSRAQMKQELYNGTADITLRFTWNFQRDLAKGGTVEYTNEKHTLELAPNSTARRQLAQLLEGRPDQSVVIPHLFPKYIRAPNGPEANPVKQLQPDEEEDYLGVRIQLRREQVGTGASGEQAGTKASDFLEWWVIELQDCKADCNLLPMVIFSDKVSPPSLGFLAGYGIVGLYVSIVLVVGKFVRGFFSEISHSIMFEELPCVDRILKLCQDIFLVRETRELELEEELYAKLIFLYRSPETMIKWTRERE
Experimental: as §1, §2, §3

R2351Q mPIEZO1 = molecular target: T3, R2351Q mPIEZO1 (Mus musculus, UniProt E2JF22, R2351Q); conditions: for Mean (Ca2+ signal time course, Figure 4f) / Mean (concentration-response, Figure 4g): R2351Q
T3 construct: expressed in transfected cells
T3 sequence (E2JF22 whole entry R2351Q): as the sequence (E2JF22 whole entry G1994D) above, with D1994G, R2351Q counted along it
Experimental: as §1, §2, §3

WT mPIEZO1 = molecular target: T4, WT mPIEZO1 (Mus musculus, UniProt E2JF22); conditions: 1.5 min exposure; fitted Hill equation
T4 construct: expressed in transfected cells
T4 sequence (E2JF22 whole entry): as the sequence (E2JF22 whole entry G1994D) above, with D1994G counted along it
Experimental: as §1, §2, §3

T1 sequence (E2JF22 whole entry E824V): as the sequence (E2JF22 whole entry G1994D) above, with E824V, D1994G counted along it

O=C(O)c1ccc(-c2cnc(SCc3c(Cl)cccc3Cl)s2)cc1 [Yoda2b, 4-(2-([(2,6-Dichlorophenyl)methyl]sulfanyl)-1,3-thiazol-5-yl)benzoic acid]
EC50 (E824V mPIEZO1): 760 nM
EC50 (G1994D mPIEZO1; 1.5 min exposure): 1000 nM
Mean (concentration-response, Figure 5g) (G1994D mPIEZO1; Yoda2b concentration 0.01 µM): -0.02242
Mean (concentration-response, Figure 5g) (G1994D mPIEZO1; Yoda2b concentration 0.03 µM): 0.00849
Mean (concentration-response, Figure 5g) (G1994D mPIEZO1; Yoda2b concentration 0.1 µM): 0.01915
Mean (concentration-response, Figure 5g) (G1994D mPIEZO1; Yoda2b concentration 0.3 µM): 0.1358
Mean (concentration-response, Figure 5g) (G1994D mPIEZO1; Yoda2b concentration 1 µM): 0.5075
Mean (concentration-response, Figure 5g) (G1994D mPIEZO1; Yoda2b concentration 3 µM): 0.8675
Mean (concentration-response, Figure 5g) (G1994D mPIEZO1; Yoda2b concentration 10 µM): 1
Mean (Ca2+ signal time course, Figure 4f) (R2351Q mPIEZO1; 0.3 µM, time 0 s): -0.00345
Mean (Ca2+ signal time course, Figure 4f) (R2351Q mPIEZO1; 0.3 µM, time 5 s): -0.00122
Mean (Ca2+ signal time course, Figure 4f) (R2351Q mPIEZO1; 0.3 µM, time 10 s): 0.01286
Mean (Ca2+ signal time course, Figure 4f) (R2351Q mPIEZO1; 0.3 µM, time 15 s): 0.00659
Mean (Ca2+ signal time course, Figure 4f) (R2351Q mPIEZO1; 0.3 µM, time 20 s): -0.0106
Mean (Ca2+ signal time course, Figure 4f) (R2351Q mPIEZO1; 0.3 µM, time 25 s): -0.00417
Mean (Ca2+ signal time course, Figure 4f) (R2351Q mPIEZO1; 0.3 µM, time 30 s): -0.1638
Mean (Ca2+ signal time course, Figure 4f) (R2351Q mPIEZO1; 0.3 µM, time 35 s): -0.1525
Mean (Ca2+ signal time course, Figure 4f) (R2351Q mPIEZO1; 0.3 µM, time 40 s): 0.1031
Mean (Ca2+ signal time course, Figure 4f) (R2351Q mPIEZO1; 0.3 µM, time 45 s): 0.1823
Mean (Ca2+ signal time course, Figure 4f) (R2351Q mPIEZO1; 0.3 µM, time 50 s): 0.2367
Mean (Ca2+ signal time course, Figure 4f) (R2351Q mPIEZO1; 0.3 µM, time 55 s): 0.2605
Mean (Ca2+ signal time course, Figure 4f) (R2351Q mPIEZO1; 0.3 µM, time 60 s): 0.2818
Mean (Ca2+ signal time course, Figure 4f) (R2351Q mPIEZO1; 0.3 µM, time 65 s): 0.2859
Mean (Ca2+ signal time course, Figure 4f) (R2351Q mPIEZO1; 0.3 µM, time 70 s): 0.3055
Mean (Ca2+ signal time course, Figure 4f) (R2351Q mPIEZO1; 0.3 µM, time 75 s): 0.2731
Mean (Ca2+ signal time course, Figure 4f) (R2351Q mPIEZO1; 0.3 µM, time 80 s): 0.2811
Mean (Ca2+ signal time course, Figure 4f) (R2351Q mPIEZO1; 0.3 µM, time 85 s): 0.2788
Mean (Ca2+ signal time course, Figure 4f) (R2351Q mPIEZO1; 0.3 µM, time 90 s): 0.2616
Mean (Ca2+ signal time course, Figure 4f) (R2351Q mPIEZO1; 0.3 µM, time 95 s): 0.2726
Mean (Ca2+ signal time course, Figure 4f) (R2351Q mPIEZO1; 0.3 µM, time 100 s): 0.2623
Mean (Ca2+ signal time course, Figure 4f) (R2351Q mPIEZO1; 0.3 µM, time 105 s): 0.2451
Mean (Ca2+ signal time course, Figure 4f) (R2351Q mPIEZO1; 0.3 µM, time 110 s): 0.2677
Mean (Ca2+ signal time course, Figure 4f) (R2351Q mPIEZO1; 0.3 µM, time 115 s): 0.2432
Mean (Ca2+ signal time course, Figure 4f) (R2351Q mPIEZO1; 0.3 µM, time 120 s): 0.2668
Mean (Ca2+ signal time course, Figure 4f) (R2351Q mPIEZO1; 0.3 µM, time 125 s): 0.2392
Mean (Ca2+ signal time course, Figure 4f) (R2351Q mPIEZO1; 0.3 µM, time 130 s): 0.2157
Mean (Ca2+ signal time course, Figure 4f) (R2351Q mPIEZO1; 3 µM, time 0 s): -0.0127
Mean (Ca2+ signal time course, Figure 4f) (R2351Q mPIEZO1; 3 µM, time 5 s): -0.01559
Mean (Ca2+ signal time course, Figure 4f) (R2351Q mPIEZO1; 3 µM, time 10 s): 0.01198
Mean (Ca2+ signal time course, Figure 4f) (R2351Q mPIEZO1; 3 µM, time 15 s): 0.01352
Mean (Ca2+ signal time course, Figure 4f) (R2351Q mPIEZO1; 3 µM, time 20 s): 7.66E-04
Mean (Ca2+ signal time course, Figure 4f) (R2351Q mPIEZO1; 3 µM, time 25 s): 0.00202
Mean (Ca2+ signal time course, Figure 4f) (R2351Q mPIEZO1; 3 µM, time 30 s): -0.4931
Mean (Ca2+ signal time course, Figure 4f) (R2351Q mPIEZO1; 3 µM, time 35 s): -0.08324
Mean (Ca2+ signal time course, Figure 4f) (R2351Q mPIEZO1; 3 µM, time 40 s): 0.5902
Mean (Ca2+ signal time course, Figure 4f) (R2351Q mPIEZO1; 3 µM, time 45 s): 0.919
Mean (Ca2+ signal time course, Figure 4f) (R2351Q mPIEZO1; 3 µM, time 50 s): 1.153
Mean (Ca2+ signal time course, Figure 4f) (R2351Q mPIEZO1; 3 µM, time 55 s): 1.288
Mean (Ca2+ signal time course, Figure 4f) (R2351Q mPIEZO1; 3 µM, time 60 s): 1.4
Mean (Ca2+ signal time course, Figure 4f) (R2351Q mPIEZO1; 3 µM, time 65 s): 1.461
Mean (Ca2+ signal time course, Figure 4f) (R2351Q mPIEZO1; 3 µM, time 70 s): 1.455
Mean (Ca2+ signal time course, Figure 4f) (R2351Q mPIEZO1; 3 µM, time 75 s): 1.399
Mean (Ca2+ signal time course, Figure 4f) (R2351Q mPIEZO1; 3 µM, time 80 s): 1.41
Mean (Ca2+ signal time course, Figure 4f) (R2351Q mPIEZO1; 3 µM, time 85 s): 1.397
Mean (Ca2+ signal time course, Figure 4f) (R2351Q mPIEZO1; 3 µM, time 90 s): 1.327
Mean (Ca2+ signal time course, Figure 4f) (R2351Q mPIEZO1; 3 µM, time 95 s): 1.295
Mean (Ca2+ signal time course, Figure 4f) (R2351Q mPIEZO1; 3 µM, time 100 s): 1.247
Mean (Ca2+ signal time course, Figure 4f) (R2351Q mPIEZO1; 3 µM, time 105 s): 1.236
Mean (Ca2+ signal time course, Figure 4f) (R2351Q mPIEZO1; 3 µM, time 110 s): 1.129
Mean (Ca2+ signal time course, Figure 4f) (R2351Q mPIEZO1; 3 µM, time 115 s): 1.087
Mean (Ca2+ signal time course, Figure 4f) (R2351Q mPIEZO1; 3 µM, time 120 s): 1.099
Mean (Ca2+ signal time course, Figure 4f) (R2351Q mPIEZO1; 3 µM, time 125 s): 1.0906
Mean (Ca2+ signal time course, Figure 4f) (R2351Q mPIEZO1; 3 µM, time 130 s): 0.9817
Mean (concentration-response, Figure 4g) (R2351Q mPIEZO1; Yoda2b concentration 0.01 µM): 6.31E-04
Mean (concentration-response, Figure 4g) (R2351Q mPIEZO1; Yoda2b concentration 0.03 µM): 0.01052
Mean (concentration-response, Figure 4g) (R2351Q mPIEZO1; Yoda2b concentration 0.1 µM): 0.03752
Mean (concentration-response, Figure 4g) (R2351Q mPIEZO1; Yoda2b concentration 0.3 µM): 0.1939
Mean (concentration-response, Figure 4g) (R2351Q mPIEZO1; Yoda2b concentration 1 µM): 0.4898
Mean (concentration-response, Figure 4g) (R2351Q mPIEZO1; Yoda2b concentration 3 µM): 0.7217
Mean (concentration-response, Figure 4g) (R2351Q mPIEZO1; Yoda2b concentration 10 µM): 0.9598
channel activation compared with Yoda1 (R2351Q mPIEZO1; side-by-side, same 96-well plate): more potently activated by Yoda2b
EC50 (WT mPIEZO1): 140 nM
